Measured values taken from PMC3234597, “Two Panels of Steroid Receptor Luciferase Reporter Cell Lines for Compound Profiling” (Combinatorial Chemistry & High Throughput Screening, 2011).
Read-outs that look alike come from different tables or passages of the source.

Molecular target: T1, human MR (full-length) (Homo sapiens, UniProt P08235)
T1 construct: expression vectors encoding full-length steroid receptors: pcDNA3-hAR, pcDNA3-hGR and pcDNA3-hMR; expressed in transfected cells; host or cells: U2OS
T1 sequence (P08235 1-984): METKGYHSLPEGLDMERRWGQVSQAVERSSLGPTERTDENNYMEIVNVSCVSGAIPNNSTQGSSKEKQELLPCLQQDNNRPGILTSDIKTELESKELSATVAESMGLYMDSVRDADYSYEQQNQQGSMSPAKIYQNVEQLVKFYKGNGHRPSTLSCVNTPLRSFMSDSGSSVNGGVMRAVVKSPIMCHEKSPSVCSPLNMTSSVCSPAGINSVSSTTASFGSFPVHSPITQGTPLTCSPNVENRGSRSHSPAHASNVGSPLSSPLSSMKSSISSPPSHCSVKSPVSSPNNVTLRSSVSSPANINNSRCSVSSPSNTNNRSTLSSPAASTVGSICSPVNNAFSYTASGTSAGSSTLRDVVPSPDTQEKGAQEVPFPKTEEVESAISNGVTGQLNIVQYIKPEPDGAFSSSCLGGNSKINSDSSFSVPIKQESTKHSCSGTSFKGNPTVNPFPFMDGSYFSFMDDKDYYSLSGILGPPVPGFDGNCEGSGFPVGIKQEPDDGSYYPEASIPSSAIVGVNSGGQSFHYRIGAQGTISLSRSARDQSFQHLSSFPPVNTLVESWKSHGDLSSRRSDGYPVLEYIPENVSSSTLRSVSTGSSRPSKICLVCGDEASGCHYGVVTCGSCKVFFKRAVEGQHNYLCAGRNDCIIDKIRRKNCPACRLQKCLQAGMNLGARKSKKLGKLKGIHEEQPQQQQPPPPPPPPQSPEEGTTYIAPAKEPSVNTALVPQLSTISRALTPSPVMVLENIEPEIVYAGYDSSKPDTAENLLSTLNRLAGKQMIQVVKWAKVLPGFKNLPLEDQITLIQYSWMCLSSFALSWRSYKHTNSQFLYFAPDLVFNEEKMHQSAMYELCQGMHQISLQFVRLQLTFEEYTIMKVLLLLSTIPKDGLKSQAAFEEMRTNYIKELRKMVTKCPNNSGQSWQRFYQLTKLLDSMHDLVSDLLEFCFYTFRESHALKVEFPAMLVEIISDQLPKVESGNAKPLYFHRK
Assay: U2OS-MR/MMTV luciferase reporter cell line (full-length receptor)
Type: cell-based
Details: for Log EC50: agonist mode, 20 h, log10 of molar EC50, mean ± SEM; for Log EC50 / Log IC50: MR/MMTV; for Log IC50: in the presence of 1 nM aldosterone, log10 of molar IC50, mean ± SEM

How did the “Log EC50” value turn out when CC[C@@H]1Cc2cc(O)ccc2C2=C1c1ccc(O)cc1C[C@H]2CC (relative stereo) [R.R-THC, (R,R)-cis-diethyltetrahydro-2,8-chrysenediol] was run?
The value was over -5.40 M.

What about the “Log IC50” value (antagonist mode) of the same molecule?
The value was -5.45 ± 0.22 M.

With C[C@H]1C[C@H]2[C@@H]3CCC4=CC(=O)C=C[C@]4(C)[C@@]3(Cl)[C@@H](O)C[C@]2(C)[C@@]1(O)C(=O)CO [Beclomethasone, beclomethasone] as the molecule, how does the “Log EC50” value read?
The value was -7.97 ± 0.12 M.

And the “Log IC50” value (antagonist mode)?
Its value is over -5.00 M.

And the “activity profile in words” value (full-length MR format, antagonist mode)?
The value was “no sign of antagonistic activity”.

C[C@]12C[C@H](O)[C@H]3[C@@H](CCC4=CC(=O)CC[C@@]43C)[C@@H]1CC[C@@H]2C(=O)CO [Corticosterone, corticosterone] was tested. Which EC50 (read-out: Log EC50 (converted)) did it give?
The EC50 was 8.13e-05 µM.

C#C[C@]1(O)CC[C@H]2[C@@H]3CCC4=Cc5oncc5C[C@]4(C)[C@H]3CC[C@@]21C [Danazol, danazol] was tested. Which EC50 (read-out: Log EC50 (converted)) did it give?
The EC50 was over 10 µM.

For O=c1c(-c2ccc(O)cc2)coc2cc(O)cc(O)c12 [Genistein, genistein], which EC50 is on record?
The EC50 was over 10 µM.

What does the source list for C[C@]12CC[C@@H]3c4ccc(O)cc4C[C@@H](CCCCCCCCC[S+]([O-])CCCC(F)(F)C(F)(F)F)[C@H]3[C@@H]1CC[C@@H]2O (stereo partly shown) [ICI 182.780]?
Log EC50: > -5.00 M; Log IC50 (antagonist mode): > -5.00 M

CCCc1c(-c2ccc(O)cc2)nn(-c2ccc(O)cc2)c1-c1ccc(O)cc1 [PPT, propyl pyrazole triol] was tested. Which EC50 (read-out: Log EC50 (converted)) did it give?
Its EC50 is over 10 µM.

How did the EC50 (read-out: Log EC50 (converted)) turn out when CCC(=O)[C@@]1(C)CC[C@H]2[C@@H]3CCC4=CC(=O)CCC4=C3CC[C@@]21C [Promegestone (R5020), promegestone] was run?
The EC50 was over 10 µM.

For C[C@]12C=CC(=O)C=C1CC[C@H]1[C@@H]3C[C@@H](O)[C@](O)(C(=O)CO)[C@@]3(C)C[C@H](O)[C@@]12F [Triamcinolone, triamcinolone], which EC50 (read-out: Log EC50 (converted)) is on record?
The EC50 was 0.186 µM.
